Assays:
Test in all cases: KINOMEscan (ScanMAX) kinase profiling
Type in all cases: binding
panel of 468 kinases [1] = target: T1, panel of 468 kinases (Homo sapiens, UniProt P49336); conditions: CDK8; 1 μM; read-out: % control
T1 construct: purchased KINOMEscan (ScanMAX) service

panel of 468 kinases [2] = target: T2, panel of 468 kinases (Homo sapiens, UniProt Q9Y463); conditions: DYRK1B; 1 μM; read-out: % control
T2 construct: purchased KINOMEscan (ScanMAX) service

panel of 468 kinases [3] = target: T3, panel of 468 kinases (Homo sapiens, UniProt O14965); conditions: AURKA; 1 μM; read-out: % control
T3 construct: purchased KINOMEscan (ScanMAX) service
T3 sequence (O14965 1-403): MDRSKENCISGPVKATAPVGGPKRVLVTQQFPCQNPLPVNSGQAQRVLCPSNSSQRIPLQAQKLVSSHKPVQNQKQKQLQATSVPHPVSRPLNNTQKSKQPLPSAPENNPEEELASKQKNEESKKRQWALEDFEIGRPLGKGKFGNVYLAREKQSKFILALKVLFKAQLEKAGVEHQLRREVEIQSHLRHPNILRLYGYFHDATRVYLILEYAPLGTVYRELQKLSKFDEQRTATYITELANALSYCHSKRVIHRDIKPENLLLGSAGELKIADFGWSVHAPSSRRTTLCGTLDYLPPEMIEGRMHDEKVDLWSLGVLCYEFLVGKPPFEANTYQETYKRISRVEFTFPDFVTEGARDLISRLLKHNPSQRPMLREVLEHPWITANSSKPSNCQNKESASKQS

panel of 468 kinases [4] = target: T4, panel of 468 kinases (Homo sapiens, UniProt O00329); conditions: PIK3CD; 1 μM; read-out: % control
T4 construct: purchased KINOMEscan (ScanMAX) service
T4 sequence (O00329 1-1044): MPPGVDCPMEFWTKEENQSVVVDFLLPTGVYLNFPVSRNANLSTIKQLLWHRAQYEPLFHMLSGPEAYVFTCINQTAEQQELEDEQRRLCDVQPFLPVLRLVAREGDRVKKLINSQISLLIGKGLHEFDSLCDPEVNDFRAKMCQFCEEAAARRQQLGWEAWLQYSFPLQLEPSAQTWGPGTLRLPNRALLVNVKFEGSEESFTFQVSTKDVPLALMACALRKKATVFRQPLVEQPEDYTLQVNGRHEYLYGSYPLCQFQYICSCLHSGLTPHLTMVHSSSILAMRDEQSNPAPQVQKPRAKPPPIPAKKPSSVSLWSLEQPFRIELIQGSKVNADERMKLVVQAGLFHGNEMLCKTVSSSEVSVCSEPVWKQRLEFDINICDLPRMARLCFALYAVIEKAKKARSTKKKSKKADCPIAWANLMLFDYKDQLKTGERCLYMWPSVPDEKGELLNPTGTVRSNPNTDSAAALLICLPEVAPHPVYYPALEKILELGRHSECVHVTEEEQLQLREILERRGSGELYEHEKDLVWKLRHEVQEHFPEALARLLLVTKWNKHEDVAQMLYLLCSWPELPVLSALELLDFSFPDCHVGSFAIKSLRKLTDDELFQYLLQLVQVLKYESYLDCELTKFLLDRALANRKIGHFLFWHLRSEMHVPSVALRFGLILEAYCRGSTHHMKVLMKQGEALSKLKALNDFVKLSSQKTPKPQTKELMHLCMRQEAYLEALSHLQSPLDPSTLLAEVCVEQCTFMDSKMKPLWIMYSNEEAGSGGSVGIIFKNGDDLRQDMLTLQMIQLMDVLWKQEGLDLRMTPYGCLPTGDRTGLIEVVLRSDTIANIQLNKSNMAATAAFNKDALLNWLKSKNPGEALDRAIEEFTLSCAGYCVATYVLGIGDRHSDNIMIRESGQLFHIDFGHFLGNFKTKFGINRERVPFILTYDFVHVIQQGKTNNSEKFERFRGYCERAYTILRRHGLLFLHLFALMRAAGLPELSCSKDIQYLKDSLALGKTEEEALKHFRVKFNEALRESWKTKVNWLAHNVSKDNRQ

panel of 468 kinases [5] = target: T5, panel of 468 kinases (Homo sapiens, UniProt O15530); conditions: PDPK1; 1 μM; read-out: % control
T5 construct: purchased KINOMEscan (ScanMAX) service
T5 sequence (O15530 1-556): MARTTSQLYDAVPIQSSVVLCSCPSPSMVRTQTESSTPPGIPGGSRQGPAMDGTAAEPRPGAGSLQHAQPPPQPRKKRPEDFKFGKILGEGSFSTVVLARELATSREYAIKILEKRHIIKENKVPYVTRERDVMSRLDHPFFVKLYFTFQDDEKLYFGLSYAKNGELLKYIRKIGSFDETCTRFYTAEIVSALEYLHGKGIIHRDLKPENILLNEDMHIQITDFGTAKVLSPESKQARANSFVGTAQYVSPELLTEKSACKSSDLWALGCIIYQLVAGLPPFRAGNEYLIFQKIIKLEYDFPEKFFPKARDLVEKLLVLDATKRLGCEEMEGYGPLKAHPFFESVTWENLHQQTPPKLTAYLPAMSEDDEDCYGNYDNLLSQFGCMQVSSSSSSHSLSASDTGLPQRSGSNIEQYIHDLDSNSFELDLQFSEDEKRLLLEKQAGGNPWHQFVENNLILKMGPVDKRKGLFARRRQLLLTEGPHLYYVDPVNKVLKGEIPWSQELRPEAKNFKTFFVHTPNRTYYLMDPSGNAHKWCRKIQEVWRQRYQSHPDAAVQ

panel of 468 kinases [6] = target: T6, panel of 468 kinases (Homo sapiens, UniProt O94804); conditions: LOK; 1 μM; read-out: % control
T6 construct: purchased KINOMEscan (ScanMAX) service
T6 sequence (O94804 whole entry): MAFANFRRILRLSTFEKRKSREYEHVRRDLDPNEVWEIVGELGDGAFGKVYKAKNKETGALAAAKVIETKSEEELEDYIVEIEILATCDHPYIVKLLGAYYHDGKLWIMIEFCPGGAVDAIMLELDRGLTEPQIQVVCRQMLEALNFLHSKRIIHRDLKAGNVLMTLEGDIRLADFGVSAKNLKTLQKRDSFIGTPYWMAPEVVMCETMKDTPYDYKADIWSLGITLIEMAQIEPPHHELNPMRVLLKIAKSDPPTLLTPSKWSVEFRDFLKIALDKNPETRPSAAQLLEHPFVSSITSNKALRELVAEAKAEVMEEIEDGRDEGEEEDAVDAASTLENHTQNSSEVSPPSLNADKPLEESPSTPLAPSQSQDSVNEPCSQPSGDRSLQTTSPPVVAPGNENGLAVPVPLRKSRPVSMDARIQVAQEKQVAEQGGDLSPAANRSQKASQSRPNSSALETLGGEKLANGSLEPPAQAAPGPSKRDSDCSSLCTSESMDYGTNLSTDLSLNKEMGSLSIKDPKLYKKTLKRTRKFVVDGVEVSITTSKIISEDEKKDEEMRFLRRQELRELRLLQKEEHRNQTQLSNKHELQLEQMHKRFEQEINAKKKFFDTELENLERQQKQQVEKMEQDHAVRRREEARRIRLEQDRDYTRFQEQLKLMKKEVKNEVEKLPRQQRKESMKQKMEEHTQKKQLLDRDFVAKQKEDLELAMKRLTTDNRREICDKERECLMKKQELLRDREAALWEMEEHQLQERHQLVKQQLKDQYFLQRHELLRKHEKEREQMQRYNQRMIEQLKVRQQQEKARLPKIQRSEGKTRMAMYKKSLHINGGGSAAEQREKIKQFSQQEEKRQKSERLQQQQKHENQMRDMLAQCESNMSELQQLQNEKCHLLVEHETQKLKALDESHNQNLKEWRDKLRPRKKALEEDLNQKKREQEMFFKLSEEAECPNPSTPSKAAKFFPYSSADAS

panel of 468 kinases [7] = target: T7, panel of 468 kinases (Homo sapiens, UniProt Q9UM73, L1196M); conditions: ALK(L1196M); 1 μM; read-out: % control
T7 construct: purchased KINOMEscan (ScanMAX) service
T7 sequence (Q9UM73 19-1620 L1196M): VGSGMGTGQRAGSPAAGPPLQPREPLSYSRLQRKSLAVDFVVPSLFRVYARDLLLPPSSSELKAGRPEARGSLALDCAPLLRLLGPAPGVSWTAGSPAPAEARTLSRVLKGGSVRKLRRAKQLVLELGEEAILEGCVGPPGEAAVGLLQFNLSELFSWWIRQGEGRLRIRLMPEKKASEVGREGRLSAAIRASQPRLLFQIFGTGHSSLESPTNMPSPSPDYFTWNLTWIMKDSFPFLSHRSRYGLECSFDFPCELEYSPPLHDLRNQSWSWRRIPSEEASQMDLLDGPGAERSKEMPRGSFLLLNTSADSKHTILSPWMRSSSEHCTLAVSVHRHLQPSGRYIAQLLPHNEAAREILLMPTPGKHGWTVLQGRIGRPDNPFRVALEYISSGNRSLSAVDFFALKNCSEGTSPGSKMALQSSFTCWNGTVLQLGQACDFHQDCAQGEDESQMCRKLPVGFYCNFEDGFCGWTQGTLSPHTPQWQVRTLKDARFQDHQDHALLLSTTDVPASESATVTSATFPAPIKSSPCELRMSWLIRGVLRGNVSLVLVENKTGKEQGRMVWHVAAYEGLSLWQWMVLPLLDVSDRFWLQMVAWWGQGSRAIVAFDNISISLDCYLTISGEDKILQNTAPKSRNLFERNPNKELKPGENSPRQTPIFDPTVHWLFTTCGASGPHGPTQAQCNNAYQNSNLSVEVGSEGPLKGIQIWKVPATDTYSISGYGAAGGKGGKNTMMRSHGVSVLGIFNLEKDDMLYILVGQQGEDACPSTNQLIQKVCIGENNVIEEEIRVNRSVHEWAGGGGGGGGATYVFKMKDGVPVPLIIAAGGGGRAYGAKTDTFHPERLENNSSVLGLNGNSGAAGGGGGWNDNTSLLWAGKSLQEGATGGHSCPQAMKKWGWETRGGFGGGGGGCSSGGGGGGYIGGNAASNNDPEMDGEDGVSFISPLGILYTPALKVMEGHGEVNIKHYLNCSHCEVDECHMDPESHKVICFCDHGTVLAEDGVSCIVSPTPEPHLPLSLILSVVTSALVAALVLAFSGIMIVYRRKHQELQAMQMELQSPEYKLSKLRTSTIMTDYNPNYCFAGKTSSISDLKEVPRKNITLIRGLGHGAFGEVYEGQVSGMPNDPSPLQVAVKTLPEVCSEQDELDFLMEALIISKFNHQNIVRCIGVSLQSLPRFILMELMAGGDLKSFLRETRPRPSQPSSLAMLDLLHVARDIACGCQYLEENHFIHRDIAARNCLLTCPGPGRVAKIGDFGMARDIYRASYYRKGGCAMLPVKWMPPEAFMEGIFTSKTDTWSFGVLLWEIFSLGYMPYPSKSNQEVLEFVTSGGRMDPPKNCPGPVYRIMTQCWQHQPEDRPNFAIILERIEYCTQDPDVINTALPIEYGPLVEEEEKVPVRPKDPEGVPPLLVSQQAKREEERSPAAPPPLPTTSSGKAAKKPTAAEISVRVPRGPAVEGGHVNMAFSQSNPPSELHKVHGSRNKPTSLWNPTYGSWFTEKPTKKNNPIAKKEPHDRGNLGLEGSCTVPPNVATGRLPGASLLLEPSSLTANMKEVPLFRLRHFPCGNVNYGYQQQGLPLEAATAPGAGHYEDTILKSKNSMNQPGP

panel of 468 kinases [8] = target: T8, panel of 468 kinases (Homo sapiens, UniProt Q86Y07); conditions: VRK2; 1 μM; read-out: % control
T8 construct: purchased KINOMEscan (ScanMAX) service
T8 sequence (Q86Y07 whole entry): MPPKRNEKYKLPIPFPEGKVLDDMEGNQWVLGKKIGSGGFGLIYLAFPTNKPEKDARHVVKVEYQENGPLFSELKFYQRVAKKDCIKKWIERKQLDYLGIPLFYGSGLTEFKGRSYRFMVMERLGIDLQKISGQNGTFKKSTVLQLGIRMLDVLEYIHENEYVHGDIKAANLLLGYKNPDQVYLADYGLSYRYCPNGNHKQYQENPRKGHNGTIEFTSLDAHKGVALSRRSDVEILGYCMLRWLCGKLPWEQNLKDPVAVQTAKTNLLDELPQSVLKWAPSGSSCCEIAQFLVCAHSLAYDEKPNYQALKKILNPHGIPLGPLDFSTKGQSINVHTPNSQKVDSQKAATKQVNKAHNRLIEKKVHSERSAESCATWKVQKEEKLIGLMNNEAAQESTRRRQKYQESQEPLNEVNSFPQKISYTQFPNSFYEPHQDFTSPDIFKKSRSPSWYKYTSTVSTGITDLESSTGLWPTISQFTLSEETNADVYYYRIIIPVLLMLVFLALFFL

T1 sequence (P49336 whole entry): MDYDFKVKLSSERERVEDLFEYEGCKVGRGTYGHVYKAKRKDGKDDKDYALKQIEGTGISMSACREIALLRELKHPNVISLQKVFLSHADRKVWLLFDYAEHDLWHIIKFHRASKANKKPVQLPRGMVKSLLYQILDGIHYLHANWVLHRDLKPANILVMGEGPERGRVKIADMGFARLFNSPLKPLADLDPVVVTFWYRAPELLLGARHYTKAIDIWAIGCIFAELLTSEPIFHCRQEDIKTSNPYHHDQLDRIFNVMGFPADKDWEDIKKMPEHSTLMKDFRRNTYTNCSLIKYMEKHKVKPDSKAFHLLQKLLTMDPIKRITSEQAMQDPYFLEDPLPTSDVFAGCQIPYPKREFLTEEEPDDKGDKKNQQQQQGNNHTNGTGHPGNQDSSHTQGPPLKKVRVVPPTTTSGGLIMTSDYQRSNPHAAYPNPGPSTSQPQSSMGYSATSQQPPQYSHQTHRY
T2 sequence (Q9Y463 whole entry): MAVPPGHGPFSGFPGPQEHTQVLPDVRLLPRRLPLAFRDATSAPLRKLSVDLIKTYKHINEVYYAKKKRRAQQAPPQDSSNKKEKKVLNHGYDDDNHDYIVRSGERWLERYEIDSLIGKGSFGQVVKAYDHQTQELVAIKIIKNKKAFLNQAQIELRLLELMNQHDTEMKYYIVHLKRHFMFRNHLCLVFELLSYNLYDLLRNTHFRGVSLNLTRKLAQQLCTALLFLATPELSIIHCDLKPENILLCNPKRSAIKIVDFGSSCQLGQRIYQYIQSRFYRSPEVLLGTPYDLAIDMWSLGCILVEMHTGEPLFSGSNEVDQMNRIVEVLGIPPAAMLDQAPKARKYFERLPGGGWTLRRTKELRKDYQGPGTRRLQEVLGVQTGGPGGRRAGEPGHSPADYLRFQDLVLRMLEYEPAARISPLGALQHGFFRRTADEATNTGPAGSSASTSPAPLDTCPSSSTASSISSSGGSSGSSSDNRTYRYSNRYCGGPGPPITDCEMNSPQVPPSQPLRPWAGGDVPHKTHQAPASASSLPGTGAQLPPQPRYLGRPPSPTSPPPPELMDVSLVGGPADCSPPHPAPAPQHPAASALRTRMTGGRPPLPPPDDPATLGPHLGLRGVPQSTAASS

Row | Structure (SMILES) | remaining binding at 1 µM (panel of 468 kinases [1]) | remaining binding at 1 µM (panel of 468 kinases [2]) | remaining binding at 1 µM (panel of 468 kinases [3]) | remaining binding at 1 µM (panel of 468 kinases [4]) | remaining binding at 1 µM (panel of 468 kinases [5]) | remaining binding at 1 µM (panel of 468 kinases [6]) | remaining binding at 1 µM (panel of 468 kinases [7]) | remaining binding at 1 µM (panel of 468 kinases [8])
1 | CNc1nc(Nc2ccc(S(=O)(=O)N3CCC(N4CCOCC4)CC3)cc2OC)nc2[nH]cc(Cl)c12 [Compound 12, 5-chloro-N2-(2-methoxy-4-((4-morpholinopiperidin-1-yl)sulfonyl)phenyl)-N4-methyl-7H-pyrrolo[2,3-d]pyrimidine-2,4-diamine] | 100% | 6.1% | 93% | 96% | 95% | 94% | 11% | 94%
2 | CNc1nc(Nc2ccc(C(=O)N3CCC(N4CCOCC4)CC3)c3c2OCO3)nc2[nH]cc(Cl)c12 [Compound 75, (7-((5-chloro-4-(methylamino)-7H-pyrrolo[2,3-d]pyrimidin-2-yl)amino)benzo[d][1,3]dioxol-4-yl)(4-morpholinopiperidin-1-yl)methanone] | 100% | 0% | 45% | 96% | 98% | 96% | 27% | 88%
3 | CNc1nc(Nc2ccc(P3(=O)CCN(C4CCOCC4)CC3)cc2OC)nc2[nH]cc(Cl)c12 [Compound 77, 4-(4-((5-chloro-4-(methylamino)-7H-pyrrolo[2,3-d]pyrimidin-2-yl)amino)-3-methoxyphenyl)-1-(tetrahydro-2H-pyran-4-yl)-1,4-azaphosphinane 4-oxide] | 91% | 13% | 85% | 92% | 100% | 90% | 7.1% | 89%

Source: US12479847B2 (DANA-FARBER CANCER INSTITUTE, INC., priority 2019, dated 2025)
